One series has as its target T1, Human 5-HT6 Receptor (Homo sapiens, UniProt P50406).
T1 construct: expressed in transfected cells; host or cells: HEK293
As to the kind of experiment: Binding assay for human 5-HT6 receptor ([3H]LSD radioligand). Here is the method: Compounds can be tested according to the following the procedures.
Receptor source: Human recombinant expressed in HEK293 cells
Radioligand [^3H]LSD (60-80 Ci/mmol)
Non-specific determinant: Methiothepin mesylate—[0.1 μM]
Reference compound: Methiothepin mesylate
Positive control: Methiothepin mesylate
Reactions were carried out in […] TRIS-HCl (pH 7.4) containing 10 μM MgCl2, 0.5 mM EDTA for 60 minutes at 37° C. The reaction was terminated by rapid vacuum filtration onto glass fiber filters. Radioactivity trapped onto the filters was determined and compared to control values in order to ascertain any interactions of test compound(s) with the cloned serotonin 5-HT6 binding site.
Literature Reference: Monsma F. J. Jr., et al., Molecular Cloning and Expression of Novel Serotonin Receptor with High Affinity for Tricyclic Psychotropic Drugs.

For series [1], the system named is animal models for schizophrenia. The conditions noted are these: literature (Pouzet et al. 2002); cited from earlier work.
Another series deals with 5-HT6 receptor. The conditions noted are these: literature; cited from earlier work.
Where [2] appears, read: human recombinant receptor in HEK293 cells, [3H]LSD 1.5 nM, 60 minutes at 37° C., read-out: Radio-ligand binding data at 5-HT6 (h) Ki.

Counter-ions that a name gives are not always drawn. Like-named read-outs stand apart in the source and are kept apart here.

T1 sequence (P50406 whole entry): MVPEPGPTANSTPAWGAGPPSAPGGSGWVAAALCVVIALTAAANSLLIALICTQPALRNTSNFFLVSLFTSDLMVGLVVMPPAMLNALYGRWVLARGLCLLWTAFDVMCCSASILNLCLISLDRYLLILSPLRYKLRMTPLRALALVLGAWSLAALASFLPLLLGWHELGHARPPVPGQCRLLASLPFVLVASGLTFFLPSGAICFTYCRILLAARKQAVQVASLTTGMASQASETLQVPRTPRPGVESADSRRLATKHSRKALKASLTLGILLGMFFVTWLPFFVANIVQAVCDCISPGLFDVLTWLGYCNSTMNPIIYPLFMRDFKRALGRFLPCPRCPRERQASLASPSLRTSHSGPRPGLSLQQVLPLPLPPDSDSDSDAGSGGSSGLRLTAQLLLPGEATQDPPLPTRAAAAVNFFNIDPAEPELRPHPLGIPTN

Take `CCN1CCN(Cc2ccc3c(ccn3S(=O)(=O)c3ccc(Br)cc3)c2)CC1.Cl.Cl`: the melting point was in the range of 264.5 to 267 °C. The compound `CCN1CCN(Cc2ccc3c(ccn3S(=O)(=O)c3cccc(C(F)(F)F)c3)c2)CC1.Cl.Cl` registered a melting point of 265 to 270 °C.

Regarding `CCN1CCN(Cc2ccc3c(ccn3S(=O)(=O)c3ccc(C)cc3)c2)CC1.Cl.Cl`, the melting point lay within 263 to 267 °C.

On to `CCN1CCN(Cc2ccc3c(ccn3S(=O)(=O)c3ccccc3)c2)CC1.Cl.Cl`, for which the melting point lay within 266 to 270.5 °C.

As to `CCN1CCN(Cc2ccc3c(ccn3S(=O)(=O)c3ccc(Cl)cc3)c2)CC1.Cl.Cl`, the melting point fell in the range of 265 to 269 °C.

`CCN1CCN(Cc2ccc3c(ccn3S(=O)(=O)c3ccc(OC)cc3)c2)CC1.Cl.Cl` returned a melting point of 254 to 258 °C. Consider `CN1CCN(Cc2ccc3c(c2)c(Cl)cn3S(=O)(=O)c2cc(C(F)(F)F)ccc2Cl)CC1` (as salt: hydrochloride) [Compound 27, 1-(2-Chloro-5-trifluoromethylbenznesulfonyl)-3-chloro-5-(4-methylpiperazin-1-ylmethyl)-1H-indole dihydrochloride], for which the melting point was 287 to 290 °C.

Compound `CN1CCN(Cc2ccc3c(ccn3S(=O)(=O)c3ccccc3)c2)CC1.Cl.Cl` [Compound 1, 1-Benzenesulfonyl-5-(4-methylpiperazin-1-ylmethyl)-1H-indole dihydrochloride] came in with a melting point of 266 to 270.5 °C. Moreover, on Human 5-HT6 Receptor (setting [2]), the Ki was determined as 3.83 nM.

`CN1CCN(Cc2ccc3c(ccn3S(=O)(=O)c3ccc(F)cc3)c2)CC1` [Compound 3, 1-(4-Fluorobenzenesulfonyl)-5-(4-methylpiperazin-1-ylmethyl)-1H-indole]: the inhibition constant (Ki) on Human 5-HT6 Receptor (setting [2]) was determined as 14.6 nM. On to `CC(C)c1ccc(S(=O)(=O)n2ccc3cc(CN4CCN(C)CC4)ccc32)cc1` [Compound 5, 1-[4-(1-Methylethyl)benzenesulfonyl]-5-(4-methylpiperazin-1-ylmethyl)-1H-indole], for which the Ki on Human 5-HT6 Receptor (setting [2]) turned out to be 17.9 nM. `CCN1CCN(Cc2ccc3c(ccn3S(=O)(=O)c3ccc(F)cc3)c2)CC1.Cl.Cl` [Compound 7, 1-(4-Fluorobenzenesulfonyl)-5-(4-ethylpiperazin-1-ylmethyl)-1H-indole dihydrochloride] gave a melting point of 265 to 270 °C. The Ki at Human 5-HT6 Receptor (setting [2]) came out at 3.21 nM.

For `CCN1CCN(Cc2ccc3c(ccn3S(=O)(=O)c3ccc(C(C)C)cc3)c2)CC1.Cl.Cl` [Compound 8, 1-[4-{1-Methylethyl)benzenesulfonyl]-5-(4-ethylpiperazin-1-ylmethyl)-1H-indole dihydrochloride], the melting point was in the range of 258 to 261 °C. Moreover, the Ki at Human 5-HT6 Receptor (setting [2]) stood at 5.81 nM. Compound `CCN1CCN(Cc2ccc3c(ccn3S(=O)(=O)c3ccc(F)cc3F)c2)CC1.Cl.Cl` [Compound 10, 1-(2,4-Difluorobenzenesulfonyl)-5-(4-ethylpiperazin-1-ylmethyl)-1H-indole dihydrochloride] had a melting point of 271 to 274.5 °C. For the same compound, the Ki at Human 5-HT6 Receptor (setting [2]) is 12.4 nM.

Consider `CCN1CCN(Cc2ccc3c(ccn3S(=O)(=O)c3cccc(Cl)c3Cl)c2)CC1.Cl.Cl` [Compound 14, 1-(2,3-Dichlorobenzenesulfonyl)-5-(4-ethylpiperazin-1-ylmethyl)-1H-indole dihydrochloride], for which the melting point fell in the range of 273.5 to 277 °C. Moreover, the Ki on Human 5-HT6 Receptor (setting [2]) stood at 5.52 nM. The compound `CCN1CCN(Cc2ccc3c(ccn3S(=O)(=O)c3ccccc3Br)c2)CC1.Cl.Cl` [Compound 15, 1-(2-Bromobenzenesulfonyl)-5-(4-ethylpiperazin-1-ylmethyl)-1H-indole dihydrochloride] registered a melting point of 255.5 to 259 °C. Besides, the Ki at Human 5-HT6 Receptor (setting [2]) was found to be 2.56 nM. On to `CN1CCN(Cc2ccc3c(ccn3S(=O)(=O)c3cc(C(F)(F)F)ccc3Cl)c2)CC1` [Compound 19, 1-(2-Chloro-5-trifluoromethylbenzenesulfonyl)-5-(4-methylpiperazin-1-ylmethyl)-1H-indole], for which the Ki on Human 5-HT6 Receptor (setting [2]) amounted to 11.3 nM. Take `CN1CCN(Cc2ccc3c(ccn3S(=O)(=O)c3ccccc3Br)c2)CC1` [Compound 20, 1-(2-Bromobenzenesulfonyl)-5-(4-methylpiperazin-1-ylmethyl)-1H-indole]: the Ki at Human 5-HT6 Receptor (setting [2]) amounted to 8.3 nM. As to `CN1CCN(Cc2ccc3c(ccn3S(=O)(=O)c3cccc(Cl)c3Cl)c2)CC1` [Compound 21, 1-(2,3-Dichlorobenzenesulfonyl)-5-(4-methylpiperazin-1-ylmethyl)-1H-indole], on Human 5-HT6 Receptor (setting [2]), the Ki stood at 18 nM.

Regarding `CN1CCN(Cc2ccc3c(ccn3S(=O)(=O)c3ccc(Cl)cc3)c2)CC1` [Compound 22, 1-(4-Chlorobenzenesulfonyl)-5-(4-methylpiperazin-1-ylmethyl)-1H-indole], the Ki on Human 5-HT6 Receptor (setting [2]) was determined as 3.02 nM. The compound `CN1CCN(Cc2ccc3c(c2)c(Cl)cn3S(=O)(=O)c2ccc(Cl)cc2)CC1` [Compound 24, 1-(4-Chlorobenzenesulfonyl)-3-chloro-5-(4-methylpiperazin-1-ylmethyl)-1H-indole] yielded a melting point of 139.2 to 140.4 °C. Compound `CN1CCN(Cc2ccc3c(c2)c(Cl)cn3S(=O)(=O)c2ccc(F)cc2)CC1` [Compound 25, 1-(4-Fluorobenzenesulfonyl)-3-chloro-5-(4-methylpiperazin-1-ylmethyl)-1H-indole] registered a melting point of 118.8 to 120.1 °C. Also, at Human 5-HT6 Receptor (setting [2]), the Ki came out at 2.97 nM. `CN1CCN(Cc2ccc3c(c2)c(Cl)cn3S(=O)(=O)c2ccc(F)cc2F)CC1.Cl.Cl` [Compound 26, 1-(2,4-Difluorobenzenesulfonyl)-3-chloro-5-(4-methylpiperazin-1-ylmethyl)-1H-indole dihydrochloride]: the melting point lay in the range of 251.85 to 253 °C. For the same compound, at Human 5-HT6 Receptor (setting [2]), the Ki was found to be 3.36 nM. For the compound `CN1CCN(Cc2ccc3c(c2)c(Cl)cn3S(=O)(=O)c2cc(C(F)(F)F)ccc2Cl)CC1` [Compound 27, 1-(2-Chloro-5-trifluoromethylbenznesulfonyl)-3-chloro-5-(4-methylpiperazin-1-ylmethyl)-1H-indole dihydrochloride], the Ki at Human 5-HT6 Receptor (setting [2]) was determined as 4.16 nM.

Regarding `CC(C)Oc1c(CN2CCN(C)CC2)ccc2c1ccn2S(=O)(=O)c1ccc(F)cc1` [Compound 28, 1-(4-Fluorobenznesulfonyl)-4-isopropoxy-5-(4-methylpiperazin-1-ylmethyl)-1H-indole], the Ki on Human 5-HT6 Receptor (setting [2]) is 276 nM. Consider `Cl.Cl.O=S(=O)(c1ccc(F)cc1)n1cc(Cl)c2cc(CN3CCNCC3)ccc21` [Compound 30, 1-(4-Fluorobenzenesulfonyl)-3-chloro-5-(piperazin-1-ylmethyl)-1H-indole dihydrochloride], for which the melting point lay in the range of 254 to 259.6 °C. Moreover, the Ki at Human 5-HT6 Receptor (setting [2]) turned out to be 2.58 nM. Turning to `Cl.Cl.O=S(=O)(c1ccccc1Br)n1ccc2cc(CN3CCNCC3)ccc21` [Compound 31, 1-(2-Bromobenzenesulfonyl)-5-(piperazin-1-ylmethyl)-1H-indole dihydrochloride], the melting point lay in the range of 264.2 to 266.9 °C. At Human 5-HT6 Receptor (setting [2]), the Ki came out at 7.77 nM.

In turn, `Cl.Cl.O=S(=O)(c1ccc(F)cc1F)n1cc(Cl)c2cc(CN3CCNCC3)ccc21` [Compound 32, 1-(2,4-Difluorobenzenesulfonyl)-3-chloro-5-(piperazin-1-ylmethyl)-1H-indole dihydrochloride] yielded a melting point of 241.5 to 246.1 °C. The compound also displayed a Ki on Human 5-HT6 Receptor of 5.77 nM. For `Cl.Cl.O=S(=O)(c1ccccc1)n1ccc2cc(CN3CCNCC3)ccc21` [Compound 33, 1-(Benzenesulfonyl)-5-(piperazin-1-ylmethyl)-1H-indole dihydrochloride], the melting point was in the range of 250.4 to 256.2 °C. Moreover, on Human 5-HT6 Receptor (setting [2]), the Ki is 2.52 nM. In the case of `CC(C)c1ccc(S(=O)(=O)n2ccc3cc(CN4CCNCC4)ccc32)cc1.Cl.Cl` [Compound 34, 1-[4-(1-Methylethyl)benzenesulfonyl]-5-(piperazin-1-ylmethyl)-1H-indole dihydrochloride], the melting point was 250 to 254 °C. Moreover, at Human 5-HT6 Receptor (setting [2]), the Ki amounted to 14.9 nM. On to `COc1ccc(NS(=O)(=O)c2sc3ccc(Cl)cc3c2C)cc1N1CCNCC1` [SB-271046, 5-Chloro-N-(4-methoxy-3-piperazin-1-ylphenyl)-3-methyl-2-benzothiophenesulfonamide], for which the “activity in animal tests related to positive or negative symptoms of schizophrenia” value in series [1] was “inactive”. For `CN(C)CCC=C1c2ccccc2CCc2ccccc21` [amitriptyline], the “affinity for the 5-HT6 receptor” value with 5-HT6 receptor was “high affinity”. In the case of `CN1CCN2c3ccccc3Cc3ccccc3C2C1` (stereo not drawn) [mianserin], the “affinity for the 5-HT6 receptor” value in the series with 5-HT6 receptor was “high affinity”.
